Assay results published in patent publication US12233161B1, “Lipids and lipid nanoparticle formulations” (LONGUIDE BIOPHARMA CORPORATION, priority 2024, dated 2025).

Key:
[1] = Particle size and PDI of nucleic acid lipid nanoparticle preparations by dynamic light scattering; format: physicochemical
Outline: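 Nanoparticle suspension (about 0.04 mg/mL mRNA) diluted in ultrapure water, mixed by gentle pipetting; particle size measured by dynamic light scattering. Zeta potential measured on the recovered sample after further dilution in ultrapure water.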

mice [2] = test: In vivo delivery of FLuc-mRNA lipid nanoparticles in mice, in vivo imaging (IVIS)
Outline: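 Mice (n=3) received about 75 μL FLuc-mRNA LNP per mouse intramuscularly (rectus femoris), intravenously (tail vein), intraperitoneally or subcutaneously (back). After injection, D-luciferin (200 μL, 15 mg/mL) was given i.p. 10-15 min before IVIS imaging.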

[3] = Potential characterization of nucleic acid lipid nanoparticle preparations; format: physicochemical; conditions: Fluc-circ-RNA LNP, preparation given IV
Outline: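 Nanoparticles (about 0.04 mg/mL mRNA) were diluted in ultrapure water for Malvern ZEN3700 measurement: 20 μL into 780 μL for potential alone, or 27.5 μL into 200 μL for DLS particle size followed by addition of 600 μL water for potential.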

mice [4] = test: In vivo delivery of FLuc-circ-RNA lipid nanoparticles in mice; conditions: Fluc-circ-RNA LNP, IV
Description: Lipid nanoparticles loaded with nucleic acid drugs were prepared according to step 2, replacing FLuc-mRNA with FLuc-circ-RNA (Hongene Biotech Corporation, Shanghai). After formulation, the nanoparticles were administered via intramuscular injection (into the quadriceps femoris muscle of mice), intravenous injection (into the tail vein of mice), intraperitoneal injection, or subcutaneous injection (subcutaneously on the back). Approximately 75 μL was injected per mouse, with a total of 3 mice per group. In vivo imaging (PerkinElmer, IVIS Lumina III) was performed after a certain period of time. Ten to fifteen minutes before imaging, 200 μL of a 15 mg/mL D-Luciferin working solution was injected intraperitoneally, followed by imaging analysis using the in vivo imaging system.

[5] = DMG-PEG2000:DSPC:Chol:Lipid 1.00:11.50:22.50:65.00, N/P 65, mRNA LNP
[6] = DMG-PEG2000:DSPC:Chol:Lipid 1.00:16.00:48.00:35.00, N/P 18, mRNA LNP
[7] = DMG-PEG2000:DSPC:Chol:Lipid 1.00:16.00:48.00:35.00, N/P 30, mRNA LNP
[8] = DMG-PEG2000:DSPC:Chol:Lipid 1.47:11.16:38.97:48.40, N/P 30, mRNA LNP
[9] = Fluc-circ-RNA LNP, preparation given IV
[10] = DMG-PEG2000:DSPC:Chol:Lipid 1.00:11.50:22.50:65.00, N/P 65, IV, liver
[11] = DMG-PEG2000:DSPC:Chol:Lipid 1.00:11.50:22.50:65.00, N/P 65, IV, lung
[12] = DMG-PEG2000:DSPC:Chol:Lipid 1.00:11.50:22.50:65.00, N/P 65, IV, spleen
[13] = DMG-PEG2000:DSPC:Chol:Lipid 1.00:16.00:48.00:35.00, N/P 18, IV, liver
[14] = DMG-PEG2000:DSPC:Chol:Lipid 1.00:16.00:48.00:35.00, N/P 18, IV, lung
[15] = DMG-PEG2000:DSPC:Chol:Lipid 1.00:16.00:48.00:35.00, N/P 18, IV, spleen
[16] = DMG-PEG2000:DSPC:Chol:Lipid 1.00:16.00:48.00:35.00, N/P 30, IV, liver
[17] = DMG-PEG2000:DSPC:Chol:Lipid 1.00:16.00:48.00:35.00, N/P 30, IV, lung
[18] = DMG-PEG2000:DSPC:Chol:Lipid 1.00:16.00:48.00:35.00, N/P 30, IV, spleen

CCCCCCCCCCCCOC(=O)C(O)CN(CCN(C)CCN(CC(O)C(=O)OCCCCCCCCCCCC)CC(O)C(=O)OCCCCCCCCCCCC)CC(O)C(=O)OCCCCCCCCCCCC (stereo not shown) [Compound L0262]
PDI [1, 5]: 0.22 ± 0.01 | Particle size [1, 5]: 145.43 ± 1.37 nm | PDI [1, 6]: 0.16 ± 0.03 | Particle size [1, 6]: 135.90 ± 1.28 nm | PDI [1, 7]: 0.18 ± 0.02 | Particle size [1, 7]: 137.37 ± 1.50 nm | PDI [1, 8]: 0.24 ± 0.02 | Particle size [1, 8]: 93.36 ± 1.24 nm | PDI [1, 9]: 0.16 | Particle size (nm) [1, 9]: 128.4 nm | IVIS (mice [2]; DMG-PEG2000:DSPC:Chol:Lipid 1.00:11.50:22.50:65.00, N/P 65, IV, body): 2.54 × 10^7 | % of organ targeting (mice [2]; [10]): 1.47% | IVIS (mice [2]; [10]): 1.32 × 10^6 | % of organ targeting (mice [2]; [11]): 85.62% | IVIS (mice [2]; [11]): 7.69 × 10^7 | % of organ targeting (mice [2]; [12]): 12.91% | IVIS (mice [2]; [12]): 1.16 × 10^7 | IVIS (mice [2]; DMG-PEG2000:DSPC:Chol:Lipid 1.00:16.00:48.00:35.00, N/P 18, IV, body): 1.06 × 10^8 | % of organ targeting (mice [2]; [13]): 5.38% | IVIS (mice [2]; [13]): 5.61 × 10^6 | % of organ targeting (mice [2]; [14]): 1.85% | IVIS (mice [2]; [14]): 1.93 × 10^6 | % of organ targeting (mice [2]; [15]): 92.76% | IVIS (mice [2]; [15]): 9.67 × 10^7 | IVIS (mice [2]; DMG-PEG2000:DSPC:Chol:Lipid 1.00:16.00:48.00:35.00, N/P 30, IV, body): 2.91 × 10^7 | % of organ targeting (mice [2]; [16]): 15.31% | IVIS (mice [2]; [16]): 3.92 × 10^6 | % of organ targeting (mice [2]; [17]): 11.64% | IVIS (mice [2]; [17]): 2.98 × 10^6 | % of organ targeting (mice [2]; [18]): 73.05% | IVIS (mice [2]; [18]): 1.87 × 10^7 | IVIS (mice [2]; DMG-PEG2000:DSPC:Chol:Lipid 1.47:11.16:38.97:48.40, N/P 30, IM, whole body scan): 2.83 × 10^5 | tissue-targeting specificity (lung vs spleen depending on molar percentage of compound) (mice [2]; certain formulations, Table 2): strong tissue-targeting specificity | Zeta potential (mV) [3]: 15.53 mV | % of organ targeting (mice [4]; liver): 3.78% | % of organ targeting (mice [4]; lung): 8.14% | % of organ targeting (mice [4]; spleen): 88.08%
